The values that follow are results of earlier work, collected in patent US20180104231A1, “BENZALKONIUM CHLORIDE FREE OPHTHALMIC COMPOSITION CONTAINING (+)-(S)-4-[4-CHLOROPHENYL) (2-PYRIDYL) METHOXY] PIPERDINO] BUTYRIC ACID OR PHARMACOLOGICALLY ACCEPTABLE ACID ADDITION SALT, THEREOF” (INTERA HEALTHCARE PLC, priority 2016, published 2018).

The conditions of data set [1]: with the lapse of time.
In data set [2] the test system is corneal epithelium and endothelium.

On to `O=C(O)CCCN1CCC(O[C@@H](c2ccc(Cl)cc2)c2ccccn2)CC1.O=S(=O)(O)c1ccccc1` [bepotastine besilate], for which, in data set [1], the “Stability to light in an aqueous solution” value is reported as “unstable to light”. Take benzalkonium chloride [BAC]: in data set [2] (BAC 0.0001%, minimum of 15 min exposure), the “Effect of BAC exposure on cornea” value was “physiological changes (edema) and ultra-structural changes to corneal epithelium and endothelium”. In addition, in data set [2] (clinical concentration (0.005%)), the “Effect of BAC on corneal epithelial cells” value was “cell wrinkling to lifting of corneal epithelial cells”.
